Key:
[1] = test system: TS(4;11)-LucNeo cells; assay: in vivo bioluminescence imaging of mice bearing MLL leukemia cell line TS(4;11), drug treatment
Source text: FIG. 15 is a pictorial representation of treatment of mice bearing MLL leukemia cell line TS(4;11) with the FLT3 inhibitor PKC-412.

[2] = test system: multiple myeloma (MM) model; assay: multiple myeloma (MM) model, cells selected for growth in bone; assay type: in vivo
Source text: FIG. 19 is a representation of the results of generating a multiple myeloma (MM) model, that was created by selecting cells with affinity for growth in bone.

[3] = test system: 32D/p210-Luc cells; assay: CML model, 32D/p210-Luc cells imaged in vivo; parameters: species or system mice
Source text: FIG. 21 is a representation showing the results of a CML model used to evaluate the ABL-inhibitor AMN107.

CO[C@@H]1[C@H](N(C)C(=O)c2ccccc2)C[C@H]2O[C@]1(C)n1c3ccccc3c3c4c(c5c6ccccc6n2c5c31)C(=O)NC4 [PKC-412]
tumor cell size ([1]; mice bearing TS(4;11) MLL cells, FIG. 16 left graph): reduces tumor cell size
bioluminescent flux as compared to controls ([1]; nude mice, TS(4;11)-LucNeo cells, 150 mg/kg/day over a two week period): constant bioluminescent flux

Nc1ncnc2c1c(-c1cccc(OCc3ccccc3)c1)cn2C1CC(CN2CCCC2)C1 (stereo not drawn) [ADW]
tumor burden ([2]; FIG. 19): reduction of tumor burden
survival as compared to untreated control ([2]; FIG. 20): positively correlated with survival

Cc1cn(-c2cc(NC(=O)c3ccc(C)c(Nc4nccc(-c5cccnc5)n4)c3)cc(C(F)(F)F)c2)cn1 [AMN107]
tumor cell growth of 32D/p210-Luc cells (quantitative) ([3]; FIG. 22): inhibits tumor cell growth
efficacy against 32D/p210-Luc cells in vivo (qualitative) ([3]; five animals, nine day assay, FIG. 21): efficacious
